Measurements as given in patent USRE47493E1, “Substituted bicyclic dihydropyrimidinones and their use as inhibitors of neutrophil elastase activity” (Boehringer Ingelheim International GmbH, priority 2014, dated 2019).
In brackets after ≈: the same amount, converted by molar mass.

Assays:
[1] = Assay for Determination of Aqueous Solubility; format: physicochemical; conditions: McIlvaine buffer pH 6.8, 2.5% DMSO; for Aqueous solubility: 24 h
Experimental: Assay for Determination of Aqueous Solubility
The aqueous solubility of a compound is determined by comparing the amount dissolved in aqueous buffer (containing 2.5% DMSO) to the amount dissolved in an acetonitrile/water (1/1) solution. Starting from a 10 mM DMSO stock solution, aliquots are diluted with acetonitrile/water (1/1) and Mcllvaine buffer pH 6.8, respectively. After 24 h of shaking, the solutions or suspensions are filtered and analyzed by LC-UV. The amount dissolved in buffer is compared to the amount dissolved in the acetonitrile/water (1/1) solution. Solubility is measured from 0.001 to 0.125 mg/ml at a DMSO concentration of 2.5%. If more than 90% of the compound is dissolved in buffer, the value is marked with “>”.

[2] = Assay for the Determination of Metabolic Stability with Human Hepatocytes; format: in vitro ADME; conditions: scaled with well stirred model
Experimental: Assay for the Determination of Metabolic Stability with Human Hepatocytes
The metabolic degradation of the test compound is assayed in a human hepatocyte suspension. Human hepatocytes (typically cryopreserved) are incubated in an appropriate buffer system (e.g. Dulbecco's modified eagle medium plus 3.5 μg glucagon/500 mL, 2.5 mg insulin/500 mL and 3.75 mg/500 mL hydrocortison) containing 5% species serum. Following a (typically) […] preincubation in an incubator (37° C., 10% CO2), 5 μl of test compound solution (80 μM; from 2 mM stock solution in DMSO diluted 1:25 with medium) are added into 395 μl hepatocyte suspension (cell density in the range 0.25-5*10^6 cells/mL, typically 1*10^6 cells/mL; final concentration of test compound 1 μM, final DMSO concentration […]). The cells are incubated for six hours (incubator, orbital shaker) and samples (25 μl) are taken at 0, 0.5, 1, 2, 4 and 6 hours. Samples are transferred into acetonitrile and pelleted by centrifugation (5 min). The supernatant is transferred to a new 96-deepwell plate, evaporated under nitrogen and resuspended. The decline of parent compound is analyzed by LC-MS/MS.
The intrinsic clearance CL_[…] is calculated as follows: CL_[…]=Dose/AUC=(C0/CD)/(AUD+clast/k)*1′000/60 (C0: initial concentration in the incubation [μM], CD: cell density of vital cells [10^6 cells/mL], AUD: area under the data [μM*h], clast: concentration of last data point [μM], k: slope of the regression line for parent decline [h^−1])
The calculated in vitro hepatic intrinsic clearance can be scaled up to the intrinsic in vivo hepatic clearance and used to predict hepatic in vivo blood clearance (CL) by the use of a is liver model (well stirred model): CL_[…]_INVIVO [ml/min/kg]=(CL_[…] [μL/min/10^6 cells]* hepatocellularity[10^6 cells/g liver]*liver factor[g/kg bodyweight])/1′000 CL[ml/min/kg]=CL_[…]_INVIVO [ml/min/kg]*hepatic blood flow [ml/min/kg]/(CL_[…]_INVIVO [ml/min/kg]+hepatic blood flow [ml/min/kg]) Qh[%]=CL[ml/min/kg]/hepatic blood flow[ml/min/kg]) (Hepatocellularity, human: 120*10^6 cells/g liver; lver factor, human: 25.7 g/kg bodyweight; blood flow, human: 21 ml/(min*kg))
The predicted human hepatic in vivo blood clearance (CL) of selected compounds in the metabolic stability assay described above are listed in Table 16.

[3] = Assay for the Determination of Metabolic Stability with Human Liver Microsomes; format: in vitro ADME; conditions: pH 7.6; pooled human liver microsomes, 37° C., NADPH; read-out: t1/2 INVITRO
Experimental: Assay for the Determination of Metabolic Stability with Human Liver Microsomes
The metabolic degradation of the test compound is assayed at 37° C. with pooled human liver microsomes. The final incubation volume of […] per time point contains TRIS buffer pH 7.6 (0.1 M), magnesium chloride (5 mM), microsomal protein (1 mg/ml) and the test compound at a final concentration of […]. Following a short preincubation period at 37° C., the reactions are initiated by addition of beta-nicotinamide adenine dinucleotide phosphate, reduced form (NADPH, 1 mM) and terminated by transfering an aliquot into acetonitrile after different time points. Additionally, the NADPH-independent degradation is monitored in incubations without NADPH, terminated at the last time point. The rol remaining test compound after NADPH independent incubation is reflected by the parameter c(control) (metabolic stability). The quenched incubations are pelleted by centrifugation (10′000 g, 5 min) An aliquot of the supernatant is assayed by LC-MS/MS for the amount of parent compound.
The half-life (t1/2 INVITRO) is determined by the slope of the semilogarithmic plot of the concentration-time profile. The intrinsic clearance (CL_[…]) is calculated by considering the amount of protein in the incubation: CL_[…][μl/min/mg protein]=(ln 2/(half-life [min]*protein content [mg/ml]))*1′000.
The half-life (t1/2 INVITRO) values of selected compounds in the metabolic stability assay described above are listed in Table 15.

Row | SMILES | Aqueous solubility [1] [µg/mL] | CL (predicted human hepatic in vivo blood clearance) [2] [mL/min/kg] | half-life at 1 nM [3] [h] | solubility at 24 h ([1]; McIlvaine buffer pH 6.8 with 2.5% DMSO, aqueous buffer, kinetic from dmso stock) [µg/mL]
1 | CNC(=O)N1C(=O)N(c2cccc(C(F)(F)F)c2)C2=C(C(=O)CCC2)[C@H]1c1ccc(C#N)cc1S(C)(=O)=O (single isomer, unassigned) [Example 47A] | 86 | 0 | > 2.17 | 
2 | CCS(=O)(=O)c1cc(C#N)ccc1[C@H]1NC(=O)N(c2cccc(C(F)(F)F)c2)C2=C1C(=O)CCC2 (single isomer, unassigned) [Example 54A] | 59 | 2 | > 2.17 | 
3 | CC(C)(O)CNC(=O)N1C(=O)N(c2cccc(C(F)(F)F)c2)C2=C(C(=O)CCC2)C1c1ccc(C#N)cc1 (stereo not drawn) [Example 70.9] |  | 0 | > 2.17 | 12 (≈ 22.8 µM)

Continued, values first:

Row | Aqueous solubility [1] [µg/mL] | CL (predicted human hepatic in vivo blood clearance) [2] [mL/min/kg] | half-life at 1 nM [3] [h] | solubility at 24 h ([1]; McIlvaine buffer pH 6.8 with 2.5% DMSO, aqueous buffer, kinetic from dmso stock) [µg/mL] | SMILES
4 | 78 | 0 | > 2.17 |  | CS(=O)(=O)c1cc(C#N)ccc1[C@H]1NC(=O)N(c2cccc(C(F)(F)F)c2)C2=C1C(=O)CCC2 (single isomer, unassigned) [Example 18A]
5 | 92 | 0 | > 2.17 |  | CS(=O)(=O)c1cc(C#N)ccc1[C@H]1NC(=O)N(c2cccc(C(F)F)c2)C2=C1C(=O)CCC2 (single isomer, unassigned) [Example 19A]
